Assay: Ionizing radiation initiated polymerization of liposomes, by loss of monomer absorption intensity
Type: physicochemical
Conditions: for dependence of extent of polymerization on continuous or discontinuous exposure: ionizing radiation; for effect of dissolved oxygen on ionizing radiation initiated polymerization: liposomes in aqueous buffer, maximum dose rate 2.1×10^4 rad/h
Description: The relative sensitivity to ionizing radiation of liposomes composed of either bis-SorbPC (1; FIG. 5), bis-DenPC (2; FIG. 5), or bis-AcrylPC (3; FIG. 5) was investigated. These polymerizable colipids have different reactivities that control the initial rate of polymerization, extent of polymerization, and inhibition by oxygen. The interaction of ionizing radiation with water produces radical species that can initiate radical chain polymerizations.
The rate of the ionizing radiation initiated polymerization (Rp) of liposomes composed of either bis-SorbPC, bis-DenPC, or bis-AcrylPC was determined by the loss of monomer absorption intensity. The maximum dose rate at the liposome samples was 2.1×10^4 rad/h. This intensity could be attenuated if desired. […] Radical polymerization of acryloyl functionalities are very sensitive to oxygen due to the high energy of the propagating species. In contrast, if the bis-AcrylPC liposome suspension was purged of oxygen the monomer could be converted to polymer in a few minutes. The Rp for bis-SorbPC liposomes in water (with or without oxygen present) was about twice that of bis-DenPC liposomes. The liposomes composed of bis-AcrylPC (without oxygen) were about 10 times more reactive than bis-SorbPC liposomes.
The usual experimental protocol for radiation exposure of the liposome samples utilized discontinuous exposure because samples for all the time points were exposed together. […] In some experiments the samples were exposed continuously. The percent loss of monomer depended on the total exposure, but was insensitive to whether the radiation was delivered in a continuous or punctuated manner.

| rate of polymerization (Rp) relative to bis-DenPC liposomes (liposomes in water, with or without oxygen present) | time for conversion of monomer to polymer (liposome suspension purged of oxygen) | change in monomer concentration (oxygen present, after 120 minutes of irradiation at the maximum dose rate) | reactivity relative to bis-SorbPC liposomes (without oxygen) | Molecule | dependence of extent of polymerization on continuous or discontinuous exposure | effect of dissolved oxygen on ionizing radiation initiated polymerization |
| --- | --- | --- | --- | --- | --- | --- |
| about twice |  |  |  | CC=CC=CC(=O)OCCCCCCCCCC(=O)OC[C@H](COP(=O)([O-])OCC[N+](C)(C)C)OC(=O)CCCCCCCCCOC(=O)C=CC=CC [bis-SorbPC] | independent of whether the exposure to ionizing radiation was continuous or discontinuous | relatively insensitive to the presence of dissolved oxygen |
|  | a few minutes | no change in the monomer concentration | about 10 times | bis-AcrylPC | independent of whether the exposure to ionizing radiation was continuous or discontinuous | inhibited by oxygen |
|  |  |  |  | bis-DenPC |  | relatively insensitive to the presence of dissolved oxygen |
